According to publication PMC9129912, “Characterization of a New Multifunctional GH20 β-N-Acetylglucosaminidase From Chitinibacter sp. GC72 and Its Application in Converting Chitin Into N-Acetyl Glucosamine” (Frontiers in Microbiology, 2022):

Test system: T1, NAGaseA
T1 construct: whole ORF, 844 residues (2535 bp), pET-28a(+) NdeI/XhoI, His6-tag kept, E. coli BL21(DE3), Ni-NTA purified, ~92 kDa (92,379 Da with His6-tag); cloning primers encode N-terminal MNKPAG and C-terminal SRVVAV
Assay: pNP release at […] nm, Lineweaver-Burk
Format: biochemical, Chitinibacter sp. GC72
Conditions: 50 mM PBS pH 6.5, 40°C, 10 min, 50-2,500 μM substrate

- Km: 40 µM
SMILES: CC(=O)N[C@H]1[C@H](Oc2ccc([N+](=O)[O-])cc2)O[C@H](CO)[C@@H](O)[C@@H]1O [pNP-GlcNAc]
